Article PMC9291951 (British Journal of Pharmacology, 2020)
Each block holds one molecule with its values, some of them ahead of it.

Key:
[1] = molecular target: human TRPV4 wild-type (hTRPV4-WT) (Homo sapiens, UniProt Q9HBA0); test: Ca2+ imaging; type: cell-based; conditions: HeLa cells
hTRPV4-D546A = hTRPV4-D546A (Homo sapiens, UniProt Q9HBA0, D546A); test: Ca2+ imaging; type: cell-based; conditions: for Blocking effect in mutant versus wild-type channel: D546A
hTRPV4-Y591H = hTRPV4-Y591H (Homo sapiens, UniProt Q9HBA0, Y591H); test: Ca2+ imaging; type: cell-based
Sequence of hTRPV4-Y591H (Q9HBA0 whole entry Y591H): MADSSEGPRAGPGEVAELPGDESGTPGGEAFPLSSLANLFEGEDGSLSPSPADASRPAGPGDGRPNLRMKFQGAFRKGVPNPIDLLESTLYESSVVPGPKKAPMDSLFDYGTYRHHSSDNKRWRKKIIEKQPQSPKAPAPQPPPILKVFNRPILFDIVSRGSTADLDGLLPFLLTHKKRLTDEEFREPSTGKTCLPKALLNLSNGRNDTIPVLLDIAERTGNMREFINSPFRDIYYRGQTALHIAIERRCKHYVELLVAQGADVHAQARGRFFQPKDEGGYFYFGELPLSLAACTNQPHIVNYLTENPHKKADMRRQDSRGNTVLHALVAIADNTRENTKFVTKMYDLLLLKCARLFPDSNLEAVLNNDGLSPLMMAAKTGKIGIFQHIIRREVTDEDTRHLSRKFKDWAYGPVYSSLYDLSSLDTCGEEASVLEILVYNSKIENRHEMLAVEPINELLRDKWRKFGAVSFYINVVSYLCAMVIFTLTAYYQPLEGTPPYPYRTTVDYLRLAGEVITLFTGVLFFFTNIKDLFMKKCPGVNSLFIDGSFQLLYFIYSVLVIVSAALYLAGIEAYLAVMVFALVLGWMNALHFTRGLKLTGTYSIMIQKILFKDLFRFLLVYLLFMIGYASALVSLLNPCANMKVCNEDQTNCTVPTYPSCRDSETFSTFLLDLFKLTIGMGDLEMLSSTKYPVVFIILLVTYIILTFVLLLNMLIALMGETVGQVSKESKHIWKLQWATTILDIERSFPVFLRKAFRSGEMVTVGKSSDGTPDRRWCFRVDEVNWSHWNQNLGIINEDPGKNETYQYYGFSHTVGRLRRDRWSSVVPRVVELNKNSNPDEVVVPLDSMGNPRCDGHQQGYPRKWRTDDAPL

hTRPV4-Y591A = hTRPV4-Y591A (Homo sapiens, UniProt Q9HBA0, Y591A); test: Ca2+ imaging; type: cell-based
Sequence of hTRPV4-Y591A (Q9HBA0 whole entry Y591A): as the sequence (Q9HBA0 whole entry Y591H) above, with H591A counted along it

TRPV4 = conditions: read-out: IC50 (antagonist); ref Cheung et al., 2017; cited from earlier work

Sequence of hTRPV4-D546A (Q9HBA0 whole entry D546A): as the sequence (Q9HBA0 whole entry Y591H) above, with D546A, H591Y counted along it
Sequence of human TRPV4 wild-type (hTRPV4-WT) (Q9HBA0 whole entry): as the sequence (Q9HBA0 whole entry Y591H) above, with H591Y counted along it

Channel activation by agonist [1]: activated | Channel activation by agonist (hTRPV4-D546A; TRPV4-D546A, HeLa cells, Ca2+ imaging): activated
SMILES: CC(C)C[C@H](NC(=O)c1cc2ccccc2s1)C(=O)N1CCN(C(=O)[C@H](CO)NS(=O)(=O)c2ccc(Cl)cc2Cl)CC1 [GSK1016790A, N‐((1S)‐1‐{[4‐((2S)‐2‐{[(2,4‐Dichlorophenyl)sulfonyl]amino}‐3‐hydroxypropanoyl)‐1‐piperazinyl]carbonyl}‐3‐methylbutyl)‐1‐benzothiophene‐2‐carboxamide]
Channel response to agonist (hTRPV4-Y591H; hTRPV4-Y591H, 1-nM GSK1016790A): Neither hTRPV4‐Y591A nor hTRPV4‐Y591H responded | Channel response to agonist (hTRPV4-Y591A; hTRPV4-Y591A, 1-nM GSK1016790A): Neither hTRPV4‐Y591A nor hTRPV4‐Y591H responded

SMILES: CC(C)(O)c1cnc(N2C[C@@]3(CCC[C@](C)(Cn4cnc5ccc(C#N)cc54)C3)OC2=O)cn1 [GSK2798745]
IC50 (TRPV4): 16 nM

SMILES: N.N.N.N.N.N.N.N.N.N.N.N.N.N.[Cl-].[Cl-].[Cl-].[Cl-].[Cl-].[Cl-].[O-2].[O-2].[Ru+3].[Ru+3].[Ru+4] [ruthenium red]
Blocking effect in mutant versus wild-type channel (hTRPV4-D546A; 1-nM GSK1016790A, ruthenium red 10 nM to 10 μM): not affected | Blocking effect in mutant versus wild-type channel (hTRPV4-D546A; 30% hypotonic solution, 1-μM ruthenium red): not affected | Blocking effect in mutant versus wild-type channel (hTRPV4-Y591H; Y591H, 30% hypotonic solution, 1-μM ruthenium red): not affected | Blocking effect in mutant versus wild-type channel (hTRPV4-Y591A; Y591A, 30% hypotonic solution, 1-μM ruthenium red): not affected
